Assay results taken from US20230416221A1, “DIHYDROISOQUINOLINONE AND ISOINDOLINONE DERIVATIVES AND USES THEREOF” (HEFEI INSTITUTES OF PHYSICAL SCIENCE, CHINESE ACADEMY OF …, priority 2020, published 2023).
Like-named read-outs stand apart in the source and are kept apart here.

Tests used:
[1] = test system: acute myeloid leukemia cell line MOLM14; assay: Growth of cancer cells, Cell Titer-Glo GI50, MOLM14; assay type: cell-based; conditions: read-out: GI50 MOLM 14
CDK9/CyclinT1 protein = CDK9/CyclinT1 protein (Homo sapiens (Human), UniProt P50750); assay: Enzyme activity assay of CDK9 protein inhibition in vitro, CDK9/CyclinT1
[2] = test system: acute myeloid leukemia cell line MOLM13; assay: Growth of cancer cells, Cell Titer-Glo GI50, MOLM13; assay type: cell-based
[3] = test system: acute myeloid leukemia cell line OCI-AML-3; assay: Growth of cancer cells, Cell Titer-Glo GI50, OCI-AML-3; assay type: cell-based; conditions: Homo sapiens, read-out: GI50 AML3
[4] = test system: human chronic myeloid leukemia cell K562; assay: Growth of cancer cells, Cell Titer-Glo GI50, K562; assay type: cell-based; conditions: read-out: GI50 K562
[5] = test system: histiocytic lymphoma U-937; assay: Growth of cancer cells, Cell Titer-Glo GI50, U937; assay type: cell-based; conditions: Homo sapiens, read-out: GI50 U937
[6] = test system: acute myeloid leukemia cell line MV4-11; assay: Growth of cancer cells, Cell Titer-Glo GI50, MV4-11; conditions: read-out: GI50 MV4-11
[7] = test system: human ovarian granulosa tumor cell COV434; assay: Growth of cancer cells, Cell Titer-Glo GI50, COV434; assay type: cell-based; conditions: Homo sapiens, COV434, 72 h, read-out: GI50 COV434
CDK9 = CDK9 (Homo sapiens (Human), UniProt P50750); assay: Binding activity of compound and CDK9, split luciferase system (C37-CL / CDK9-NL) in HEK-293T cells; assay type: cell-based
Description: The plasmid of split luciferase system was constructed by molecular cloning technology. The N-terminal domain (NLuc) and C-terminal domain (CLuc) of luciferase were respectively cloned and inserted into the vector PCDNA3 to construct NLuc-PCDNA3 and CLuc-PCDNA3 vectors, and the polyclonal sites were reserved at both ends of the sequence. Then CDC37 and CDK9 were cloned into the corresponding vectors to construct C37-CL and CDK9-NL vectors. C37-CL plasmid sequence is shown in SEQ ID NO. 1. CDK9-NL plasmid sequence is shown in SEQ ID NO. 2.
The mixed transfection complex was added to the 10 cm cell culture dish and cultured at 37° C. and 5% CO2 for 24 hours. […] After counting, the transfected cells were placed in a 96-well white Corning cell culture plate (purchased from Corning, U.S.) with 100 μL, 5000 cells/well. After 12 hours, the medium was removed from the 96-well plate and 100 μL culture medium containing corresponding concentration of the testing compound was added, which was cultured continuously for 12 hours. After 12 hours, 20 μL Luciferase-Glo (purchased from Promega, U.S.) testing reagent was added to each well. After mixing, the […] value was detected using a microplate reader.

[8] = test system: MOLM13 drug resistant strain MOLM13 BR1; assay: Growth of drug resistant strain MOLM13 BR1, Cell Titer-Glo GI50; assay type: cell-based; conditions: 72 hours
[9] = Homo sapiens, MOLM-14, incubated for 72 hours, Cell Titer-Glo
[10] = Homo sapiens, MOLM-13, incubated for 72 hours, Cell Titer-Glo, Table 1, read-out: GI50 MOLM 13
[11] = Homo sapiens, MOLM-13, 72 h, read-out: GI50 MOLM 13
[12] = incubated for 72 hours, Cell Titer-Glo
[13] = Homo sapiens, K562, incubated for 72 hours, Cell Titer-Glo
[14] = U-937, incubated for 72 hours, Cell Titer-Glo
[15] = Homo sapiens, MOLM-13, BAY1251152-resistant MOLM13 strain
[16] = Homo sapiens, MOLM-13, incubated for 72 hours, Cell Titer-Glo, Table 2, read-out: GI50 MOLM13

Chain of CDK9 (P50750 whole entry, the tested form may be a part): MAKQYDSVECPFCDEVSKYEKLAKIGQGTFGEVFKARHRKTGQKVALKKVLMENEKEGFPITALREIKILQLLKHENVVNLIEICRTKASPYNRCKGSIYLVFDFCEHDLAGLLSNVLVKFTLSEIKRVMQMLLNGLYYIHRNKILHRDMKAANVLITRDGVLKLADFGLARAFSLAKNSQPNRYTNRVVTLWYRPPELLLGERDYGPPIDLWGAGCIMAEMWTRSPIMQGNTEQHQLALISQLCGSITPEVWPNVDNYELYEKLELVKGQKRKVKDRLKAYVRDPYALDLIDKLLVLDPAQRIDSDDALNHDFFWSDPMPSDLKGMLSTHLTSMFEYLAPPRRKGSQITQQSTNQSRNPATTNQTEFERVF
Chain of CDK9/CyclinT1 protein (P50750 whole entry): as the sequence (P50750 whole entry, the tested form may be a part) above
Chain of CDK9/CyclinT1 protein (O60563 whole entry partner): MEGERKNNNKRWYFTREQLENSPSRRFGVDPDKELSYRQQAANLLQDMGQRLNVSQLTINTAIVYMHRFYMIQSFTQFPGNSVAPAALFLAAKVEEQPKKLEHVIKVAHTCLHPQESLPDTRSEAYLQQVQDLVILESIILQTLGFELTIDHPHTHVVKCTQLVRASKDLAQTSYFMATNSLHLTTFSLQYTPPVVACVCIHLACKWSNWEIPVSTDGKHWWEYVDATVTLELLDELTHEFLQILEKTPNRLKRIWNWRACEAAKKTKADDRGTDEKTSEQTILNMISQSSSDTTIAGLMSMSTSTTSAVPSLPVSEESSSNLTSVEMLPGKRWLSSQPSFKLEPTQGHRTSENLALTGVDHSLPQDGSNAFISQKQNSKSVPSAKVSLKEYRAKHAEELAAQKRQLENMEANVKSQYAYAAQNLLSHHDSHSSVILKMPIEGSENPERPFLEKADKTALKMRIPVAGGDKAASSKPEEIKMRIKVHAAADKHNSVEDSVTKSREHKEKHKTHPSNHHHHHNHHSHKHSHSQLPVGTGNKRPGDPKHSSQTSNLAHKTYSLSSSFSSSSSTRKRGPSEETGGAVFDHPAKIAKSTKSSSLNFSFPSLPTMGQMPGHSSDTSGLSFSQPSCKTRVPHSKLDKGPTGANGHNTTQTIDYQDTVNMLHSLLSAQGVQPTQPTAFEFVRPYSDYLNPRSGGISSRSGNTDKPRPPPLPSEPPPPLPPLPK

Compound	GI50 [1, 9]	IC50 (CDK9/CyclinT1 protein)	GI50 [2, 10]	GI50 ([6]; Homo sapiens, MV4-11, 72 h)	GI50 [4, 13]	also measured
COCCN[C@H]1CC[C@H](Nc2ncc(Cl)c(-c3ccc4c(c3)C(C)(C)NC4=O)n2)CC1 [Compound 22, 5-(5-chloro-2-(((1r,4r)-4-((2-methoxyethyl)amino)cyclohexyl)amino)pyrimidin-4-yl)-3,3-dimethylisoindoline-1-one]	41 nM	13 nM	28 nM	–	–	–
CC1(C)CNC(=O)c2ccc(-c3ccnc(Nc4cccc(CS(C)(=O)=O)c4)n3)cc21 [Compound 28, 4,4-dimethyl-6-(2-((3-((methylsulfonyl)methyl)phenyl)amino)pyrimidin-4-yl)-3,4-dihydroisoquinolin-1(2H)-one]	–	–	–	2 nM	–	GI50 ([1]; Homo sapiens, MOLM-14, 72 h): 2 nM; GI50 ([3]; 72 h): 2 nM; GI50 ([4]; Homo sapiens, K562, 72 h): 10 nM; GI50 ([5]; U-937, 72 h): 2 nM; GI50 [2, 11]: 1 nM
CN1CCC(NC(=O)c2cccc(Nc3nccc(-c4ccc5c(c4)C(C)(C)CNC5=O)n3)c2)CC1 [Compound 33, 3-((4-(4,4-dimethyl-1-oxo-1,2,3,4-tetrahydroisoquinolin-6-yl)pyrimidin-2-yl)amino)-N-(1-methylpiperidin-4-yl)benzamide]	–	–	10 nM	6 nM	77 nM	GI50 [7]: 8 nM; GI50 [3, 12]: 48 nM; GI50 [5, 14]: 63 nM
CC1(C)CNC(=O)c2ccc(-c3ccnc(Nc4ccc(F)c(NS(C)(=O)=O)c4)n3)cc21 [Compound 34, N-(5-((4-(4,4-dimethyl-1-oxo-1,2,3,4-tetrahydroisoquinolin-6-yl)pyrimidin-2-yl)amino)-2-fluorophenyl)methanesulfamide]	–	6.1 nM	11 nM	4 nM	24 nM	GI50 [7]: 9 nM; IC50 (CDK9): 50 nM; GI50 [3, 12]: 8 nM; GI50 [5, 14]: 7 nM
CC1(C)CNC(=O)c2ccc(-c3ccnc(Nc4ccc(F)c(CS(C)(=O)=O)c4)n3)cc21 [Compound 36, 6-(2-((4-fluoro-3-((methylsulfonyl)methyl)phenyl)amino)pyrimidin-4-yl)-4,4-dimethyl-3,4-dihydroisoquinolin-1(2H)-one]	–	–	–	3 nM	–	GI50 ([1]; Homo sapiens, MOLM-14, 72 h): 2 nM; GI50 ([4]; Homo sapiens, K562, 72 h): 9 nM; GI50 [2, 11]: < 1 nM
CN1CCN(c2cc(Nc3ncc(F)c(-c4ccc5c(c4)C(C)(C)CNC5=O)n3)ccc2F)CC1 [Compound 72, 6-(5-fluoro-2-((4-fluoro-3-(4-methylpiperazin-1-yl)phenyl)amino)pyrimidin-4-yl)-4,4-dimethyl-3,4-dihydroisoquinolin-1(2H)-one]	5.5 nM	15 nM	< 1 nM	–	–	–
CN1CCN(c2cc(F)cc(Nc3ncc(F)c(-c4ccc5c(c4)C(C)(C)CNC5=O)n3)c2)CC1 [Compound 73, 6-(5-fluoro-2-((3-fluoro-5-(4-methylpiperazin-1-yl)phenyl)amino)pyrimidin-4-yl)-4,4-dimethyl-3,4-dihydroisoquinolin-1(2H)-one]	< 1 nM	–	< 1 nM	–	26 nM	GI50 [8, 15]: 0.345 nM; GI50 [2, 16]: 1.64 nM
CN1CCN(c2cc(Nc3ncc(Cl)c(-c4ccc5c(c4)C(C)(C)CNC5=O)n3)ccc2F)CC1 [Compound 75, 6-(5-chloro-2-((4-fluoro-3-(4-methylpiperazin-1-yl)phenyl)amino)pyrimidin-4-yl)-4,4-dimethyl-3,4-dihydroisoquinolin-1(2H)-one]	110 nM	–	33 nM	–	–	–
CC(C)N1CCN(c2cc(Nc3ncc(F)c(-c4ccc5c(c4)C(C)(C)CNC5=O)n3)ccc2F)CC1 [Compound 80, 6-(5-fluoro-2-((4-fluoro-3-(4-isopropylpiperazin-1-yl)phenyl)amino)pyrimidin-4-yl)-4,4-dimethyl-3,4-dihydroisoquinolin-1(2H)-one]	7.2 nM	–	3.3 nM	–	15 nM	GI50 [8, 15]: 12.3 nM; GI50 [2, 16]: 11.6 nM
CC(=O)N[C@@H]1CCC[C@H](C(=O)Nc2cc(-c3ccc4c(c3)C(C)(C)CNC4=O)c(Cl)cn2)C1 [Compound 96, (1S,3R)-3-acetylamino-N-(5-chloro-4-(4,4-dimethyl-1-oxo-1,2,3,4-tetrahydroisoquinolin-6-yl)pyridin-2-yl)cyclohexyl-1-formamide]	–	–	–	–	–	GI50 ([8]; BAY1251152-resistant MOLM13 strain): 5.6 nM; GI50 [1, 12]: 17 nM; IC50 (CDK9/CyclinT1 protein; read-out: CDK9/CyclinT1 Protein activity (IC50)): 0.52 nM; GI50 [4, 12]: 72 nM; GI50 ([2]; incubated for 72 hours, Cell Titer-Glo, Table 1, read-out: GI50 MOLM 13): 8 nM; GI50 [6, 12]: 9 nM
CC1(C)CNC(=O)c2ccc(-c3ccnc(N[C@H]4CC[C@H](CC(=O)O)CC4)n3)cc21 [Compound 106]	–	10.4 nM	–	–	–	–

Second part, led by results:

GI50 [1, 9]	IC50 (CDK9/CyclinT1 protein)	GI50 [2, 10]	GI50 ([6]; Homo sapiens, MV4-11, 72 h)	GI50 [4, 13]	Compound	also measured
59 nM	27 nM	35 nM	57 nM	942 nM	CN(C)S(=O)(=O)c1cccc(Nc2nccc(-c3ccc4c(c3)C(C)(C)CNC4=O)n2)c1 [Compound 29, 3-((4-(4,4-dimethyl-1-oxo1,2,3,4-tetrahydroisoquinolin-6-yl)pyrimidin-2-yl)amino)-N,N-dimethylbenzenesulfonamide]	GI50 [3, 12]: 153 nM; GI50 [5, 14]: 186 nM
16 nM	–	5 nM	13 nM	95 nM	CC1(C)CNC(=O)c2ccc(-c3ccnc(Nc4cccc(S(C)(=N)=O)c4)n3)cc21 (stereo not shown) [Compound 38]	–
5.8 nM	6.6 nM	3 nM	1.7 nM	25 nM	CN1CCN(c2ccc(Nc3nccc(-c4ccc5c(c4)C(C)(C)CNC5=O)n3)cc2)CC1 [Compound 40, 4,4-dimethyl-6-(2-((4-(4-methylpiperazin-1-yl)phenyl)amino)pyrimidin-4-yl)-3,4-dihydroisoquinolin-1(2H)-one]	GI50 [8, 15]: 4.39 nM; IC50 (CDK9): 67 nM; GI50 [3, 12]: 5 nM; GI50 [5, 14]: 4.6 nM
25 nM	2.5 nM	11 nM	6.6 nM	84 nM	CN1CCC(NC(=O)c2cc(Nc3nccc(-c4ccc5c(c4)C(C)(C)CNC5=O)n3)ccc2F)CC1 [Compound 41]	IC50 (CDK9): 114 nM; GI50 [3, 12]: 23 nM; GI50 [5, 14]: 13 nM
96 nM	–	30 nM	–	–	COc1ccc(Nc2nccc(-c3ccc4c(c3)C(C)(C)CNC4=O)n2)cc1CS(C)(=O)=O [Compound 45, 6-(2-((4-methoxy-3-((methylsulfonyl)methyl)phenyl)amino)pyrimidin-4-yl)-4,4-dimethyl-3,4-dihydroisoquinolin-1(2H)-one]	–
15 nM	–	–	–	–	CC1(C)NC(=O)c2ccc(-c3nc(Nc4ccc(F)c(CS(C)(=O)=O)c4)ncc3Cl)cc21 [Compound 51, 5-(5-chloro-2-((4-fluoro-3-((methylsulfonyl)methyl)phenyl)amino)pyrimidin-4-yl)-3,3-dimethylisoindoline-1-one]	–
44 nM	–	19 nM	–	–	CC1(C)CNC(=O)c2ccc(-c3nc(Nc4ccc(F)c(C5(S(C)(=O)=O)CC5)c4)ncc3F)cc21 [Compound 63, 6-(5-fluoro-2-((4-fluoro-3-(1-(methylsulfonyl)cyclopropyl)phenyl)amino)pyrimidin-4-yl)-4,4-dimethyl-3,4-dihydroisoquinolin-1(2H)-one]	–
10 nM	0.9 nM	–	34 nM	–	CC1(C)CNC(=O)c2ccc(-c3ccnc(N[C@@H]4CCCN(S(C)(=O)=O)C4)n3)cc21 [Compound 104]	–
43 nM	15 nM	–	82 nM	–	CC1(C)CNC(=O)c2ccc(-c3ccnc(NC4CCN(S(C)(=O)=O)CC4)n3)cc21 [Compound 105, 4,4-dimethyl-6-(2-((1-(methylsulfonyl)piperidin-4-yl)amino)pyrimidin-4-yl)-3,4-dihydroisoquinolin-1(2H)-one]	–
